Reference: patent publication US8389012B2, “Gellan-gum nanoparticles and methods of making and using the same” (The Corporation of Mercer University, priority 2008, dated 2013)
Where two headings read alike, the source gives them in different places.

Columns and labels:
DU-145 cells = test: MTT cytotoxicity assay, DU-145; format: cell-based, human; conditions: then 72 h; for viability at 25 µg/mL: Homo sapiens, DU-145, DU-145, 25 μg/ml Ptx, read-out: cell viability
Description: (§1) To investigate the cytotoxicity of Ptx-GGbPEG-Apt nanoparticles on human prostate cancer cells, mitochondrial dehydrogenase assay (MTT) was employed. PC-3 or DU-145 cells (5×10^3) were seeded in 96-well plates containing 100 μl of RPMI medium 1640 (American Type Culture Collection), supplemented with 100 units/ml aqueous penicillin G, 100 μg/ml streptomycin, and 10% FBS. Cells were then allowed to adhere overnight prior to treatment. On the day of experiment, cells were washed twice with PBS and then exposed to similar concentrations (25 μg/ml) of Ptx in either the encapsulated or free formulations. The control cells received 1% (v/v) DMSO or drug free GGbPEG nanoparticles (1.0 μg/ml). Cells were incubated with drug formulations for different time points (10, 30, 120 mins) followed by washing with PBS and replacing treatment medium with fresh medium in the plates. Cells were further incubated for 72 h. At the end of treatment period, medium was removed and replaced with 100 μl of complete culture medium and 10 μl of MTT (5 mg/ml) in each well and the plates were incubated at 37° C. in a humidified, 5% CO2 atmosphere for 3 h. The resulting formazan crystals were solubilized with 100 μl of the stop solution (0.1N HCl in isopropanol). The optical densities (OD) of the resulting solutions were determined at 490 nm using a microplate reader (Packard Instruments, Meriden, Conn.) and cell viability (%) was calculated by comparing the OD of the treatment group relative to that of the untreated control group (100%).

PC-3 cells = test: MTT cytotoxicity assay, PC-3; format: cell-based, human; conditions: PC-3, 10, 30, 120 minutes treatment, then 72 h
Description: as §1, with “At the end of treatment period, medium was removed and replaced with 100 μl of complete culture medium and 10 μl of MTT (5 mg/ml) in each well and the plates were incubated at 37° C. in a humidified, 5% CO2 atmosphere for 3 h. The resulting formazan crystals were solubilized with 100 μl of the stop solution (0.1N HCl in isopropanol).” left out

PC-3 tumors [1] = test: Histological analysis of excised tumor (H & E); format: in vivo, mice; conditions: day 60 post treatment
Description: Selected tumors from each group were harvested and fixed in 10% neutral buffered formalin. Tumors were paraffin embedded, sectioned, placed on polylysine slides, and stained with Hematoxylin & Eosin (H & E) to visualize morphological changes in the tumors in both the treated and control groups. Images were recorded using a light microscope equipped with camera.

[2] = i.v.; cited from earlier work
PC-3 tumors [3] = test: In vivo efficacy in athymic nude mice bearing human xenograft prostate cancer tumor; conditions: single i.v. injection, 60 days
Description: For in vivo efficacy study, athymic nude mice bearing human prostate tumor (−150 mm^3) were divided into five groups of four mice, minimizing, weight and tumor size differences. […] Human xenograft prostate cancer tumors were induced in 6-week old athymic nude mice (NCI Frederick, Md., USA). Mice were injected subcutaneously in the right flank with 2.5×10^6 PC-3 cells suspended in a 1:1 mixture of serum-free media and matrigel (BD Biosciences, Franklin Lakes, N.J., USA). Prior to use in tumor induction, PC-3 cells were cultured in RPMI-1640 medium supplemented with 10% fetal bovine serum, 100 units/ml penicillin G, and 100 mg/ml streptomycin. Tumor targeting studies were carried out after the mice developed ˜150 mm^3 tumors. […] After dosing, the mice were monitored for weight and implanted tumor size daily for sixty days. The length and width of the tumors were measured by digital calipers and tumor volume was calculated by the following formula: (width^2×length)/2 [17]. […]
To evaluate the in vivo efficacy of Ptx-GGbPEG-Apt copolymeric nanoparticles, PC-3 cells were injected subcutaneously in the flanks of athymic nude mice as described above. […] The tumor size and body weight were then monitored for 60 days.

For `CC(=O)O[C@H]1C(=O)[C@@]2(C)[C@H]([C@H](OC(=O)c3ccccc3)[C@]3(O)C[C@H](OC(=O)[C@H](O)[C@@H](NC(=O)c4ccccc4)c4ccccc4)C(C)=C1C3(C)C)[C@]1(OC(C)=O)CO[C@@H]1C[C@@H]2O` [Ptx, Paclitaxel], the cytotoxic effect (DU-145 cells; DU-145, 10, 30, 120 minutes treatment) was “time-dependent cytotoxicity”, the viability at 25 µg/mL (DU-145 cells; treated 30 minutes) was 50% and the viability at 25 µg/mL (DU-145 cells; treated 120 min) was 35%. The cytotoxic effect (PC-3 cells) was “time-dependent cytotoxicity”, the “histological examination of tumors by H & E staining” value (PC-3 tumors [1]) was “extensively necrotic” and the “maximal tolerated dose (MTD)” value [2] was 40 mg/kg. For the same compound, the “efficacy in tumor reduction (comparison of groups)” value (PC-3 tumors [3]) was “does not show any significant long-term efficacy”.
